Data reported in the supplement of paper PMC4862054.
Where “and” joins values, the source holds several entries; their conditions need not be identical. Equal entries are not always repeated.

Key:
Conditions in all cases: incubation time: 72 h
[1] = test system: CAL-51; assay: drug sensitivity score (DSS), CellTiter-Blue viability (DSS (AUC-based score)); higher = stronger viability inhibition; extreme values may be limits of the assay
Protocol: (§1)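 DSRT with the CellTiter-Blue (resazurin reduction) viability readout, fluorescence 560/590 nm, 72 h incubation. Plates were normalised to DMSO and benzethonium chloride controls. DSS is computed from the area under the fitted dose-response curve (5 or 9 concentrations).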

[2] = test system: MDA-MB-453; assay: as above
Protocol: as §1

[3] = test system: CAL-85-1; assay: as above
Protocol: as §1

[4] = test system: CAL-120; assay: as above
Protocol: as §1

[5] = test system: BT-474; assay: as above
Protocol: as §1

[6] = test system: MDA-MB-231; assay: as above
Protocol: as §1

[7] = test system: HDQ-P1; assay: as above
Protocol: as §1

[8] = test system: SK-BR-3; assay: as above
Protocol: as §1

[9] = test system: HCC1937; assay: as above
Protocol: as §1

[10] = test system: HCC1143; assay: as above
Protocol: as §1

[11] = test system: CAL-148; assay: as above
Protocol: as §1

[12] = test system: DU-4475; assay: as above
Protocol: as §1

[13] = test system: BT-549; assay: as above
Protocol: as §1

[14] = test system: HCC1599; assay: as above
Protocol: as §1

[15] = test system: MDA-MB-436; assay: as above
Protocol: as §1

[16] = test system: MDA-MB-468; assay: as above
Protocol: as §1

[17] = test system: Hs578T; assay: as above
Protocol: as §1

[18] = test system: MFM-223; assay: as above
Protocol: as §1

[19] = test system: CAL-51; assay: normalised viability (% of control), CellTiter-Blue; higher = more viable cells (about 100 = DMSO control)
Protocol: (§2)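 DSRT, CellTiter-Blue viability, 72 h incubation. Signal is normalised to DMSO and benzethonium chloride controls. Value is the normalised response at dose 3.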

[20] = test system: MDA-MB-453; assay: as above
Protocol: as §2

[21] = test system: CAL-120; assay: as above
Protocol: as §2

[22] = test system: MDA-MB-231; assay: as above
Protocol: as §2

[23] = test system: HDQ-P1; assay: as above
Protocol: as §2

[24] = test system: HCC1937; assay: as above
Protocol: as §2

[25] = test system: CAL-148; assay: as above
Protocol: as §2

[26] = test system: MDA-MB-436; assay: as above
Protocol: as §2

[27] = test system: Hs578T; assay: as above
Protocol: as §2

[28] = test system: MFM-223; assay: as above
Protocol: as §2

| SMILES | drug sensitivity score [1] | drug sensitivity score [2] | drug sensitivity score [3] | drug sensitivity score [4] | drug sensitivity score [5] | drug sensitivity score [6] | drug sensitivity score [7] | drug sensitivity score [8] | drug sensitivity score [9] | drug sensitivity score [10] | drug sensitivity score [11] | drug sensitivity score [12] | drug sensitivity score [13] | drug sensitivity score [14] | drug sensitivity score [15] | drug sensitivity score [16] | drug sensitivity score [17] | drug sensitivity score [18] | normalised viability ([19]; 10 nM) | normalised viability ([20]; 10 nM) | also measured |
| --- | --- | --- | --- | --- | --- | --- | --- | --- | --- | --- | --- | --- | --- | --- | --- | --- | --- | --- | --- | --- | --- |
| CC(C)(C)c1cc(NC(=O)Nc2ccc(-c3cn4c(n3)sc3cc(OCCN5CCOCC5)ccc34)cc2)no1 [Quizartinib] | 0 | 0 | 0 | 0 | 0 | 0 | 0 | 0 | 0 | 0 | 0 | 0 | 3.75 | 0.62 | 0 | 0 | 0 | 0 | – | – | normalised viability ([19]; 1 nM): 107%; normalised viability ([20]; 1 nM): 99%; normalised viability ([21]; 10 nM): 94.4%; normalised viability ([22]; 10 nM): 91.3%; normalised viability ([23]; 1 nM): 91.8%; normalised viability ([24]; 10 nM): 81.7%; normalised viability ([25]; 1 nM): 100%; normalised viability ([26]; 10 nM): 110%; normalised viability ([27]; 10 nM): 69.5%; normalised viability ([28]; 10 nM): 86% |
| CS(=O)(=O)CCNCc1ccc(-c2ccc3ncnc(Nc4ccc(OCc5cccc(F)c5)c(Cl)c4)c3c2)o1 [Lapatinib] | 0 | 17.8 and 17 | 6.56 and 6.25 | – | 17.2 and 17.8 | – | 0 | 25.7 and 24.2 | – | 0 | 3.64 and 1.81 | 0 | 3.9 and 2.66 | – | 4.07 and 1.46 | 8.9 and 8.18 | 3.66 and 4.18 | – | 116% and 104% | 95.8% and 83.7% | normalised viability ([21]; 100 nM): 84.9% and 101%; normalised viability ([23]; 10 nM): 102% and 124%; normalised viability ([24]; 100 nM): 97.1% and 106%; normalised viability ([25]; 10 nM): 86% and 86.5%; normalised viability ([26]; 100 nM): 95.6% and 116%; normalised viability ([28]; 100 nM): 94% and 92.9% |
| COC1=C2C[C@@H](C)C[C@H](OC)[C@H](O)[C@@H](C)/C=C(\C)[C@H](OC(N)=O)[C@@H](OC)/C=C\C=C(/C)C(=O)NC(=CC1=O)C2=O [Geldanamycin] | 14.4 | 23 | 16.6 | 25.7 | 22.7 | 24.2 | 20.1 | 25.2 | 21.8 | 20.4 | 18.2 | 22.5 | 23.4 | 14.7 | 25 | 24.1 | 19.2 | 21.8 | 104% | 120% | normalised viability ([21]; 100 nM): 25.1%; normalised viability ([22]; 100 nM): 31.4%; normalised viability ([23]; 10 nM): 109%; normalised viability ([24]; 100 nM): 31.3%; normalised viability ([25]; 10 nM): 104%; normalised viability ([26]; 100 nM): 20%; normalised viability ([27]; 100 nM): 56.8%; normalised viability ([28]; 100 nM): 50.6% |
| CC(=O)O[C@H]1C(=O)[C@@]2(C)[C@H]([C@H](OC(=O)c3ccccc3)[C@]3(O)C[C@H](OC(=O)[C@H](O)[C@@H](NC(=O)c4ccccc4)c4ccccc4)C(C)=C1C3(C)C)[C@]1(OC(C)=O)CO[C@@H]1C[C@@H]2O [Paclitaxel] | 19.3 | 22.2 | 18.3 | 22.2 | 19 | 21.4 | 20.9 | 26.6 | 22.9 | 17.6 | 21.9 | 18.3 | 24.7 | 3.04 | 15.8 | 16.4 | 24.4 | 15 | – | – | normalised viability ([19]; 1 nM): 91.8%; normalised viability ([20]; 1 nM): 107%; normalised viability ([21]; 10 nM): 36.9%; normalised viability ([22]; 10 nM): 35.7%; normalised viability ([23]; 1 nM): 60.8%; normalised viability ([24]; 10 nM): 36.4%; normalised viability ([25]; 1 nM): 103%; normalised viability ([26]; 10 nM): 52.2%; normalised viability ([27]; 10 nM): 26%; normalised viability ([28]; 10 nM): 55.8% |
| CCCC(CCC)C(=O)O [Valproic acid] | 0 | 0 | 0 | 0 | 0 | 0 | 0 | 0 | 0 | 0 | 0 | 0 | 0 | 0 | 0 | 0 | 0 | 0 | 97.8% | 94.4% | normalised viability ([21]; 100 nM): 110%; normalised viability ([22]; 100 nM): 110%; normalised viability ([23]; 10 nM): 139%; normalised viability ([24]; 100 nM): 98.8%; normalised viability ([25]; 10 nM): 106%; normalised viability ([26]; 100 nM): 95.4%; normalised viability ([27]; 100 nM): 111%; normalised viability ([28]; 100 nM): 94.9% |
| COC(=O)C[C@](O)(CCCC(C)(C)O)C(=O)O[C@@H]1C(OC)=C[C@]23CCCN2CCc2cc4c(cc2[C@H]13)OCO4 [Omacetaxine] | 30.7 | 28.2 | 31.8 | 28.6 | 20.5 | 27.8 | 30.7 | 28.3 | 31.8 | 24.5 | 31.6 | 38.1 | 28.3 | 24.8 | 26.7 | 28.5 | 28.8 | 26.3 | – | – | – |
| COc1ccc(C2=N[C@@H](c3ccc(Cl)cc3)[C@@H](c3ccc(Cl)cc3)N2C(=O)N2CCNC(=O)C2)c(OC(C)C)c1 [Nutlin-3] | 2.91 | 0 | 0 | 0 | 0 | 0 | 0 | 0 | 0 | 0 | 0 | 3.53 | 0 | 0 | 0 | 0 | 0 | 0 | 94.3% | 98.7% | normalised viability ([21]; 100 nM): 84.8%; normalised viability ([22]; 100 nM): 88.3%; normalised viability ([23]; 10 nM): 113%; normalised viability ([24]; 100 nM): 106%; normalised viability ([25]; 10 nM): 95.6%; normalised viability ([26]; 100 nM): 97.9%; normalised viability ([27]; 100 nM): 101%; normalised viability ([28]; 100 nM): 83.2% |
| C[C@@H]1C=C2C(=O)O[C@@H]3CC[C@H](C1)[C@]23O [Galiellalactone] | 0.94 | 8.97 | 9.4 | 0 | 2.65 | 9.39 | 2.82 | 6.66 | 5.76 | 0 | 4.5 | 0 | 10.4 | 0 | 6.26 | 6.59 | 0.961 | 2.28 | – | – | normalised viability ([19]; 50 nM): 106%; normalised viability ([20]; 50 nM): 110%; normalised viability ([21]; 500 nM): 85.6%; normalised viability ([22]; 500 nM): 91.8%; normalised viability ([23]; 50 nM): 113%; normalised viability ([24]; 500 nM): 90.9%; normalised viability ([25]; 50 nM): 104%; normalised viability ([26]; 500 nM): 90.1%; normalised viability ([27]; 500 nM): 101%; normalised viability ([28]; 500 nM): 92.8% |
| c1ccc(C2CN3CCSC3=N2)cc1 (centres undefined) [Tetramisole] | 0 | 0 | 0 | 0 | 0 | 0 | 0 | 0 | 0 | 0 | 0 | 0 | 0 | 0 | 0 | 0 | 0 | 0 | 95.2% | 98.1% | normalised viability ([21]; 100 nM): 120%; normalised viability ([22]; 100 nM): 101%; normalised viability ([23]; 10 nM): 122%; normalised viability ([24]; 100 nM): 108%; normalised viability ([25]; 10 nM): 114%; normalised viability ([26]; 100 nM): 108%; normalised viability ([27]; 100 nM): 97.5%; normalised viability ([28]; 100 nM): 92.3% |
| CCOc1cc2ncc(C#N)c(Nc3ccc(OCc4ccccn4)c(Cl)c3)c2cc1NC(=O)/C=C/CN(C)C [Neratinib] | 0 | 4.42 | 0 | 0 | 0 | 0 | 0 | 0 | 0 | 0 | 0 | 0 | 0 | 0 | 0 | 0 | 0 | 0 | – | – | normalised viability ([19]; 1 nM): 97.1%; normalised viability ([20]; 1 nM): 100%; normalised viability ([21]; 10 nM): 84.9%; normalised viability ([22]; 10 nM): 118%; normalised viability ([23]; 1 nM): 114%; normalised viability ([24]; 10 nM): 106%; normalised viability ([25]; 1 nM): 93.5%; normalised viability ([26]; 10 nM): 117%; normalised viability ([27]; 10 nM): 84.1%; normalised viability ([28]; 10 nM): 87.9% |
| C[C@@]1(C(=O)Nc2ccc(F)nc2)CCCN1c1nc(Nc2cc(C3CC3)n[nH]2)c2cccn2n1 | 9.17 | 5.98 | 10.6 | 8.33 | 0 | 11 | 16 | 5.88 | 6.32 | 9.58 | 6.09 | 9.27 | 6.82 | 11.5 | 2.82 | 7.88 | 5.68 | 10.1 | 97% | 112% | normalised viability ([21]; 100 nM): 91.8%; normalised viability ([22]; 100 nM): 93.8%; normalised viability ([23]; 10 nM): 89.5%; normalised viability ([24]; 100 nM): 88.3%; normalised viability ([25]; 10 nM): 94%; normalised viability ([26]; 100 nM): 92.6%; normalised viability ([27]; 100 nM): 79.4%; normalised viability ([28]; 100 nM): 88.2% |
| C#Cc1cccc(Nc2ncnc3cc(OC)c(OCCCCCCC(=O)NO)cc23)c1 [CUDC-101] | 4.16 | 19.9 | 15 | 11.8 | 14.8 | 12 | 14.7 | 18.6 | 11.3 | 12.4 | 12.2 | 10.6 | 8.79 | 15.3 | 10.6 | 18 | 15.6 | 15.6 | 113% | 87.4% | normalised viability ([21]; 100 nM): 67.1%; normalised viability ([22]; 100 nM): 91.2%; normalised viability ([23]; 10 nM): 86.3%; normalised viability ([24]; 100 nM): 88.8%; normalised viability ([25]; 10 nM): 83.6%; normalised viability ([26]; 100 nM): 117%; normalised viability ([27]; 100 nM): 70.2%; normalised viability ([28]; 100 nM): 63.3% |
